Key:
KRAS (G13D)::SOS1 = KRAS (G13D)::SOS1 (Homo sapiens (Human), UniProt P01116, C118S/G13D); experiment: KRAS::SOS1 AlphaScreen binding assay, KRAS G13D
Description: (§1) This assay can be used to examine the potency with which compounds according to the invention binding to (mutated) KRAS inhibit the protein-protein interaction between SOS1 and (mutated) KRAS e.g., KRAS WT, KRAS G12C, KRAS G12D, KRAS G12V, KRAS G13D. […] Low IC50 values in this assay setting are indicative of strong inhibition of protein-protein interaction between SOS1 and KRAS:
(§2) These assays measure the inhibitory effect of compounds on KRAS mutant protein-protein interactions using the Alpha Screen technology by Perkin Elmer.
(§3) The following (mutant) enzyme forms of KRAS and interacting proteins are used in these assays at the given concentrations: • KRAS (G12D) 1-169, N-terminal 6His-tag, C-terminal avi-tag (Xtal BioStructures, Inc.); final assay concentration 10 nM and SOS1 564-1049, N-terminal 229 GST-tag, TEV cleavage site (Viva Biotech Ltd); final assay concentration 5 nM; • KRAS (G12C) 1-169, N-terminal 6His-tag for purification, cleaved off, C-terminal avi-tag, biotinylated, mutations: C51S, C80L, C118S (in house); final assay concentration 7.5 nM and SOS1 564-1049, N-terminal 229 GST-tag, TEV cleavage site (Viva Biotech Ltd); final assay concentration 5 nM; • KRAS (G12V) 1-169, N-terminal 6His-tag for purification, cleaved off, C-terminal avi-tag, biotinylated, TEV cleavage site, mutation: C118S, GDP loaded (in house); final assay concentration 10 nM and SOS1 564-1049, N-terminal 229 GST-tag, TEV cleavage site (Viva Biotech Ltd); final assay concentration 10 nM; • KRAS (G13D) 1-169, N-terminal 6His-tag for purification, cleaved off, C-terminal avi-tag, biotinylated, TEV cleavage site, mutation: C118S, GDP loaded (in house); final assay concentration 10 nM and SOS1 564-1049, N-terminal 229 GST-tag, TEV cleavage site (Viva Biotech Ltd); final assay concentration 10 nM; • KRAS (WT) 1-169, N-terminal 6His-tag for purification, cleaved off, C-terminal avi-tag, biotinylated, TEV cleavage site, mutation: C118S, GDP loaded (in house); final assay concentration 10 nM and SOS1 564-1049, N-terminal 229 GST-tag, TEV cleavage site (Viva Biotech Ltd); final assay concentration 10 nM.
(§4) Test compounds dissolved in DMSO are dispensed onto assay plates (Proxiplate 384 PLUS, white, PerkinElmer; 6008289) using an Access Labcyte Workstation with the Labcyte Echo 55×. For the chosen highest assay concentration of 100 μM, 150 nL of compound solution are transferred from a 10 mM DMSO compound stock solution. A series of eleven fivefold dilutions per compound are transferred to the assay plate, compound dilutions are tested in duplicates. DMSO are added as backfill to a total volume of 150 nL.
(§5) The assays run on a fully automated robotic system in a darkened room below 100 Lux. To 150 nl of compound dilution 10 μl of a mix including KRAS mutant protein, SOS1 (final assay concentrations see above) and GDP nucleotide (Sigma G7127; final assay concentration 10 μM) in assay buffer (1×PBS, 0.1% BSA, 0.05% Tween 20) are added into columns 1-24.
(§6) After 30 minutes incubation time 5 μl of Alpha Screen bead mix in assay buffer are added into columns 1-23. Bead mix consists of AlphaLISA Glutathione Acceptor Beads (PerkinElmer, Cat No AL109) and AlphaScreen Streptavidin Donor Beads (PerkinElmer Cat No 6760002) in assay buffer at a final assay concentration of 10 μg/ml each.
(§7) Plates are kept at room temperature in a darkened incubator. After an additional 60 minutes incubation time the signal is measured in a PerkinElmer Envision HTS Multilabel Reader using the AlphaScreen specs from PerkinElmer.
(§8) Each plate contains up to 16 wells of a negative control depending on the dilution procedure (platewise or serial) (DMSO instead of test compound; with KRAS mutant::SOS1 GDP mix and bead mix; column 23) and 16 wells of a positive control (DMSO instead of test compound; with KRAS mutant::SOS1 GDP mix w/o bead mix; column 24).
(§9) As internal control known inhibitors of KRAS mutant::SOS1 interaction can be measured on each compound plate. […]

CYP3A4 = CYP3A4 (Homo sapiens (Human), UniProt P08684); experiment: Mechanism based inhibition of CYP3A4 assay (MBI 3A4); format: in vitro ADME; settings: hydroxy-midazolam formation after 30 min vs 0 min preincubation, 25 uM, human liver microsomes
Chain of CYP3A4 (P08684 whole entry): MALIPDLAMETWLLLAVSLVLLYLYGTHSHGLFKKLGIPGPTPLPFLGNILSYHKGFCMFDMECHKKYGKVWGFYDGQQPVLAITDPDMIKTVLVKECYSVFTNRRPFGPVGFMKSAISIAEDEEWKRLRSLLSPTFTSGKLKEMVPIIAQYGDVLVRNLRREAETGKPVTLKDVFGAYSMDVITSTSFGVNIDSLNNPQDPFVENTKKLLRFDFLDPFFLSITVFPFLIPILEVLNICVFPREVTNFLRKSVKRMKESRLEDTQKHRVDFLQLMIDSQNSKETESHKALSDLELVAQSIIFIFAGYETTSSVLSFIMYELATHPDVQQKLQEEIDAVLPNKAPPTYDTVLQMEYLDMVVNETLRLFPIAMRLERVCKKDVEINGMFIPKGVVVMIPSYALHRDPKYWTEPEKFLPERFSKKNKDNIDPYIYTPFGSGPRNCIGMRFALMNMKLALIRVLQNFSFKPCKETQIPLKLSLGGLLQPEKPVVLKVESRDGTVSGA
In short: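 Human CYP3A4 activity after 30 min vs 0 min preincubation with test compound; incubate then diluted 1:10 and midazolam added for a 15 min main incubation. Quenched with acetonitrile; hydroxy-midazolam quantified by LC/MS-MS and expressed as % of the 0 min preincubation formation.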

KRAS (WT)::SOS1 = KRAS (WT)::SOS1 (Homo sapiens (Human), UniProt P01116, C118S); experiment: KRAS::SOS1 AlphaScreen binding assay, KRAS WT
Chain of KRAS (WT)::SOS1 (P01116 other isoform, or with tags, fused parts or gaps C118S): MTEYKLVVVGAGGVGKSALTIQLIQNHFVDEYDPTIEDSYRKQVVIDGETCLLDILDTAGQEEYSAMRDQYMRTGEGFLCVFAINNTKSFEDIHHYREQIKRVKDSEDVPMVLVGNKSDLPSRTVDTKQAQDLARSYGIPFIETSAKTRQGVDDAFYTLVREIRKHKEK
In short: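 Compounds (up to 100 μM, eleven fivefold dilutions in duplicate) were incubated 30 min with KRAS 1-169 (10 nM, or 7.5 nM for G12C), GST-SOS1 564-1049 (5 nM for G12D/G12C, 10 nM for others) and 10 μM GDP in PBS buffer with BSA and Tween. Donor/acceptor beads were then added for 60 min at room temperature, and IC50 came from a 4-parameter fit of the AlphaScreen signal.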

GP2D cells = experiment: GP2D proliferation assay (120 h) (colorectal cancer, G12D); format: cell-based
In short: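 500 cells/well in DMEM + GlutaMAX + 10% FCS, exposed to a logarithmic compound dose series (DMSO-normalized) for 120 h. Viability read by CellTiter-Glo luminescence as percent of DMSO control, with an untreated T0 read at dosing; IC50 from four-parameter non-linear regression.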

KRAS (G12V)::SOS1 = KRAS (G12V)::SOS1 (Homo sapiens (Human), UniProt P01116, C118S/G12V); experiment: KRAS::SOS1 AlphaScreen binding assay, KRAS G12V
Chain of KRAS (G12V)::SOS1 (P01116 other isoform, or with tags, fused parts or gaps G12V/C118S): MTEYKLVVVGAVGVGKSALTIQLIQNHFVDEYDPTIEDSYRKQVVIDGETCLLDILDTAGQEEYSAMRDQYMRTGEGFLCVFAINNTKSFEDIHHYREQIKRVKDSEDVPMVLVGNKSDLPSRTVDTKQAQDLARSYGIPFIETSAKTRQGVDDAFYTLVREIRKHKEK
Description: as §1, §2, §3, §4, §5, §6, §7, §8, §9

Chain of KRAS (G13D)::SOS1 (P01116 other isoform, or with tags, fused parts or gaps G13D/C118S): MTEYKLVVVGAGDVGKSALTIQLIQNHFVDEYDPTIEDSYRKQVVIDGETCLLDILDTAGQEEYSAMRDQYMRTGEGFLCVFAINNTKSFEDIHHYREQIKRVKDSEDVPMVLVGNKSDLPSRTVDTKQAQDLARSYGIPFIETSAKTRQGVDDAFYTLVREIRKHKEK

Structure (SMILES)	IC50 (KRAS (G13D)::SOS1) [nM]	MBI 3A4 (CYP3A4) [%]	IC50 (KRAS (WT)::SOS1) [nM]	IC50 (GP2D cells) [nM]	IC50 (KRAS (G12V)::SOS1) [nM]
C[C@H](Oc1cc(N2CCNC3(CC3)C2)nc(-c2onc3c2CCC[C@@]32CCCc3sc(N)c(C#N)c32)n1)[C@@H]1C[C@@H](F)CN1C [I-45]			6	2	8
C[C@H](Oc1cc(N2C[C@H](C)N(C)[C@@H](C)C2)nc(-c2onc3c2CCC[C@@]32CCCc3sc(N)c(C#N)c32)n1)[C@@H]1CCCN1C [I-43]		64		143	8
C[C@H](Oc1cc(N2CCNC3(COC3)C2)nc(-c2onc3c2CCC[C@@]32CCCc3sc(N)c(C#N)c32)n1)[C@@H]1CCCN1C [I-4]	20	64	3	1	8
Cc1ccc(-c2cc(O[C@@H](C)[C@@H]3CCCN3C)nc(-c3onc4c3CCC[C@@]43CCCc4sc(N)c(C#N)c43)n2)cn1 [I-28]		77	18		3
C[C@H](Oc1cc(N2CC3CCC(C2)N3)nc(-c2noc3c2CCC[C@@]32CCCc3sc(N)c(C#N)c32)n1)[C@@H]1CCCN1C [II-34]	38	83	8	49	17
C[C@H](Oc1cc(N2CCN(C)C3(CC3)C2)nc(-c2onc3c2CCC[C@@]32CCCc3sc(N)c(C#N)c32)n1)[C@@H]1C[C@@H](F)CN1C [I-39]	146	37	11	17	

Further lines, results first:

IC50 (KRAS (G13D)::SOS1) [nM]	MBI 3A4 (CYP3A4) [%]	IC50 (KRAS (WT)::SOS1) [nM]	IC50 (GP2D cells) [nM]	IC50 (KRAS (G12V)::SOS1) [nM]	Structure (SMILES)
12	77	3	57	1	C[C@H](Oc1cc(-n2ccc(C(N)=O)n2)nc(-c2noc3c2CCC[C@@]32CCCc3sc(N)c(C#N)c32)n1)[C@@H]1CCCN1C [II-21]
8	58	3		2	C[C@H](Oc1cc(-n2ccc(C(=O)NC3(C)COC3)n2)nc(-c2noc3c2CCC[C@@]32CCCc3sc(N)c(C#N)c32)n1)[C@@H]1CCCN1C [II-26]
	63	4	57	2	CNC(=O)c1ccn(-c2cc(O[C@@H](C)[C@@H]3CCCN3C)nc(-c3noc4c3CCC[C@@]43CCCc4sc(N)c(C#N)c43)n2)n1 [II-20]
71	76	11	9	39	C[C@H](Oc1cc(N2CC[C@H](N(C)C)C2)nc(-c2noc3c2CCC[C@@]32CCCc3sc(N)c(C#N)c32)n1)[C@@H]1C[C@@H](F)CN1C [II-15]
8	65		1		C[C@H](Oc1cc(N2CCNC3(COC3)C2)nc(-c2noc3c2CCC[C@@]32CCCc3sc(N)c(C#N)c32)n1)[C@@H]1CCCN1C [II-31]
	63	5		2	C[C@H](Oc1cc(-c2ccn([C@H]3CCCOC3)n2)nc(-c2noc3c2CCC[C@@]32CCCc3sc(N)c(C#N)c32)n1)[C@@H]1CCCN1C [II-42]
				12	C[C@H](Oc1cc(-c2cnn(C)n2)nc(-c2noc3c2CCC[C@@]32CCCc3sc(N)c(C#N)c32)n1)[C@@H]1C[C@@H](F)CN1C [II-28]
11	77	16		7	C[C@H](Oc1cc(-n2ccc(C(=O)NC3COC3)n2)nc(-c2noc3c2CCC[C@@]32CCCc3sc(N)c(C#N)c32)n1)[C@@H]1CCCN1C [II-25]
9			136		C[C@H](Oc1cc(-n2ccc(C(=O)N3CCCC3)n2)nc(-c2noc3c2CCC[C@@]32CCCc3sc(N)c(C#N)c32)n1)[C@@H]1CCCN1C [II-19]
8	70	3	9	3	C[C@H](Oc1cc(N2CCN(C)C3(COC3)C2)nc(-c2noc3c2CCC[C@@]32CCCc3sc(N)c(C#N)c32)n1)[C@@H]1CCCN1C [II-13]

Source: patent US20240174690A1, “ANNULATED 2-AMINO-3-CYANO THIOPHENES AND DERIVATIVES FOR THE TREATMENT OF CANCER” (BOEHRINGER INGELHEIM INTERNATIONAL GMBH, priority 2021, published 2024)
